Measured values from ChEMBL document CHEMBL1138303, “Putative bioactive conformations of amide linked cyclic myelin basic protein peptide analogues associated with experimental autoimmune encephalomyelitis” (J Med Chem, 2007).
Calls of active or inactive are those of the source. The calls are words filed in the database; no cut-off is given here. Peptide text beside a SMILES is read from it.

Key:
[1] = Solubility per 100 uL of the compound; assay type: physicochemical
[2] = species: Rattus norvegicus; assay: Inhibition of encephalitogenic MBP(74-85)-induced encephalomyelitis in Lewis rat; assay type: functional, organism-based

Row | Solubility [1] [mg] | Compound | Activity [2]
1 | 16 | CC[C@H](C)[C@@H]1NC(=O)[C@H](CC(N)=O)NC(=O)[C@H](CCCCN)NC(=O)[C@H](Cc2ccccc2)NC(=O)[C@H](Cc2ccccc2)NC(=O)[C@H](Cc2c[nH]cn2)NC(=O)[C@H](C(C)C)NC(=O)[C@@H]2CCCN2C(=O)[C@H]([C@@H](C)O)NC(=O)[C@H](CCCNC(=N)N)NC(=O)[C@@H]2CCCN2C(=O)[C@H]([C@@H](C)O)NC(=O)[C@H](C(C)C)NC1=O | –
2 | 16.25 | CC[C@H](C)[C@@H]1NC(=O)[C@H](CC(N)=O)NC(=O)[C@H](CCCNC(=N)N)NC(=O)[C@H](Cc2ccccc2)NC(=O)[C@H](Cc2ccccc2)NC(=O)[C@H](Cc2c[nH]cn2)NC(=O)[C@H](C(C)C)NC(=O)[C@@H]2CCCN2C(=O)[C@H]([C@@H](C)O)NC(=O)[C@H](CCCNC(=N)N)NC(=O)[C@H](C)NC(=O)[C@H]([C@@H](C)O)NC(=O)[C@H](C(C)C)NC1=O (HELM PEPTIDE1{A.R.T.P.V.H.F.F.R.N.I.V.T}$PEPTIDE1,PEPTIDE1,1:R1-13:R2$$$V2.0) | Active
3 | 1.15 | CC[C@H](C)[C@@H]1NC(=O)[C@H](CC(N)=O)NC(=O)[C@H](C)NC(=O)[C@H](Cc2ccccc2)NC(=O)[C@H](Cc2ccccc2)NC(=O)[C@H](Cc2c[nH]cn2)NC(=O)[C@H](C(C)C)NC(=O)[C@@H]2CCCN2C(=O)[C@H]([C@@H](C)O)NC(=O)[C@H](CCCNC(=N)N)NC(=O)[C@H](C)NC(=O)[C@H]([C@@H](C)O)NC(=O)[C@H](C(C)C)NC1=O (HELM PEPTIDE1{A.N.I.V.T.A.R.T.P.V.H.F.F}$PEPTIDE1,PEPTIDE1,1:R1-13:R2$$$V2.0) | Active
